# Measurements from ChEMBL document CHEMBL1201862, “PubChem BioAssay data set” (2004).
# Active and inactive are the calls of the source. No stated cut-off is given here; in the data, actives have a measured IC50 and inactives only a lower limit.
# Target: T1, Sentrin-specific protease 7 (Homo sapiens, UniProt Q9BQF6);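 further: Luminescence-based dose-response confirmation of ultra-high-throughput screening hits, measuring inhibition of SENP7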
# T1 sequence (Q9BQF6 whole entry): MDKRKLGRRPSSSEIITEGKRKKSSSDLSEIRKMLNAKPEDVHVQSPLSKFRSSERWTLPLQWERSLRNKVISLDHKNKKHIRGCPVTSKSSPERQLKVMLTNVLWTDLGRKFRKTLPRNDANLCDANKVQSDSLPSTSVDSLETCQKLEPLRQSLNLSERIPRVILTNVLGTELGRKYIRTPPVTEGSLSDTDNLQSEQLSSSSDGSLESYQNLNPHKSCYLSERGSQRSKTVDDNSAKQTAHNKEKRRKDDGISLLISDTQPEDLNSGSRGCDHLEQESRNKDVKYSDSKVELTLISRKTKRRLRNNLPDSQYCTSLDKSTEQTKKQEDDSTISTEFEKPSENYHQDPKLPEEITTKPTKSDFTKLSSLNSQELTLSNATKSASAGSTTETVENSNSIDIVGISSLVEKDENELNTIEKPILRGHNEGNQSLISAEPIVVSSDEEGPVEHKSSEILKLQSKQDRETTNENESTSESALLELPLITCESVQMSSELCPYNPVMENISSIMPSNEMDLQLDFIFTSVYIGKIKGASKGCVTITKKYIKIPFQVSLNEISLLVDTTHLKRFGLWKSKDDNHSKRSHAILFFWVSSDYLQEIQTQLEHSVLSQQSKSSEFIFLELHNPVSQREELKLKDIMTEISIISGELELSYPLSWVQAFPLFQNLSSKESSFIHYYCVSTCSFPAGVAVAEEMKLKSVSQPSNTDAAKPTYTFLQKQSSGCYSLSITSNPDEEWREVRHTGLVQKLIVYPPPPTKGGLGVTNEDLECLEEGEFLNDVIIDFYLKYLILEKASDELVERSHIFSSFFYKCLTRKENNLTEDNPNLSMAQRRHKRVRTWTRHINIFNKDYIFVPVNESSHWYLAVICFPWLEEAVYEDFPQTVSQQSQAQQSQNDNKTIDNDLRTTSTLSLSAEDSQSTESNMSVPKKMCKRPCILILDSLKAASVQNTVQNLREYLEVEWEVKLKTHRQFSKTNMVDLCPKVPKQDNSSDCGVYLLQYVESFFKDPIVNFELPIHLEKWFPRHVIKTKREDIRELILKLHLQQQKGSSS
# Assay type: functional
row,SMILES,IC50
1,O=C(NC1(O)C(=O)c2ccccc2C1=O)c1ccc(C(F)(F)F)cc1,3.51 µM (active)
2,O=C(NC1(O)C(=O)c2ccccc2C1=O)c1c(Cl)cccc1Cl,3.76 µM (active)
3,O=C(COC(=O)c1ccc([N+](=O)[O-])s1)Nc1ncc(C(F)(F)F)cc1Cl,10.5 µM (active)
4,CCN(c1ccccc1)c1cc2ccccc2c(=O)[nH]1,3.37 µM (active)

# Target: T2, Apoptotic protease-activating factor 1 (Homo sapiens, UniProt O14727)
# T2 sequence (O14727 whole entry): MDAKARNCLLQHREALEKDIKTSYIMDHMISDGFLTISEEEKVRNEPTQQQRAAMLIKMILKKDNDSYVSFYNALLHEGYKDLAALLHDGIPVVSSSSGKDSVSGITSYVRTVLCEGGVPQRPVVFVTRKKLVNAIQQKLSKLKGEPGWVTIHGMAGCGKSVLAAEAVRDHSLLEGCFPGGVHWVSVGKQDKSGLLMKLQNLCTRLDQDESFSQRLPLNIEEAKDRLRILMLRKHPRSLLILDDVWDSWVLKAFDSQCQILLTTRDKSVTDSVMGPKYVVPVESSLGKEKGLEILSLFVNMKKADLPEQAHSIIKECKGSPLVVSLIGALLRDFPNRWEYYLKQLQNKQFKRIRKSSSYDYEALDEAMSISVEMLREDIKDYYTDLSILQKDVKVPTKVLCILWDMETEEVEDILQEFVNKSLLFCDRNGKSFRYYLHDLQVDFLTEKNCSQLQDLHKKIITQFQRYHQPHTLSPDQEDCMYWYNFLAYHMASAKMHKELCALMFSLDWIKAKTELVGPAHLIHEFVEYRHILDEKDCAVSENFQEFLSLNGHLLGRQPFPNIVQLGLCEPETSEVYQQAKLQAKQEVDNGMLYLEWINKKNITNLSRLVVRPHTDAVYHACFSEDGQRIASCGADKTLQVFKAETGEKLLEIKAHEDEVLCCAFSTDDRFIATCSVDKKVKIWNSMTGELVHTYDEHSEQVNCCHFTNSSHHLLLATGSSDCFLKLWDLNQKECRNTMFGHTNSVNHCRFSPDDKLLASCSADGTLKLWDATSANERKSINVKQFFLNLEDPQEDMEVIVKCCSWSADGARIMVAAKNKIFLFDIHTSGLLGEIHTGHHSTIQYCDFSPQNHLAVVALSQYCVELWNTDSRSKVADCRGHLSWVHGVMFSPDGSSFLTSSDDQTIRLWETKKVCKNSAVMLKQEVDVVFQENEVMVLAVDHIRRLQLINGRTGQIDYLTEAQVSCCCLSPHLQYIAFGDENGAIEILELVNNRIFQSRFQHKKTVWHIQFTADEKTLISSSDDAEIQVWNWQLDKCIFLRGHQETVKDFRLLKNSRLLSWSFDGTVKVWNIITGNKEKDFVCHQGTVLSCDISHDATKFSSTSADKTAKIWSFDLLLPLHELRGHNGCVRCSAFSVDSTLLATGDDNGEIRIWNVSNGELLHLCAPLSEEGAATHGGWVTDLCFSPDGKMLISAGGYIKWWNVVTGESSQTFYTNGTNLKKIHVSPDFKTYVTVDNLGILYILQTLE
# Assay type: functional
row,SMILES,IC50
1,O=C(NC1(O)C(=O)c2ccccc2C1=O)c1ccc(C(F)(F)F)cc1,2.97 µM (active)
2,O=C(NC1(O)C(=O)c2ccccc2C1=O)c1c(Cl)cccc1Cl,2.7 µM (active)
3,CCN(c1ccccc1)c1cc2ccccc2c(=O)[nH]1,18.7 µM (active)
